Laboratory results from US20070167631A1, “Novel herbicides” (priority 2003, published 2007).

Key:
Type in all cases: in vivo
Abutilon = test: Pre-emergence herbicidal action (Example B1); details: 250 g/ha, after 4 weeks, rating scale 10=total damage, 0=no action
Protocol: (§1) Monocotyledonous and dicotyledonous test plants are sown in standard soil in pots or seed trays. Immediately after sowing, the test compounds, in the form of an aqueous suspension (prepared from a wettable powder (Example F3, b) according to WO 97/34485) or in the form of an emulsion (prepared from an emulsifiable concentrate (Example F1, c) according to WO 97/34485), are applied by spraying in a concentration of 250 g/ha. The test plants are then grown in a greenhouse under optimum conditions. After a test duration of 4 weeks, the test is evaluated in accordance with a scale of eleven ratings (10=total damage, 0=no action). Ratings of from 10 to 7 (especially from 10 to 8) indicate very good to good herbicidal action.

Amaranthus [1] = test: Pre-emergence herbicidal action (Example B1); details: 250 g/ha, after 4 weeks, rating scale 10=total damage, 0=no action
Protocol: as §1

Chenopodium [2] = test: Pre-emergence herbicidal action (Example B1); details: 250 g/ha, after 4 weeks, rating scale 10=total damage, 0=no action
Protocol: as §1

Digitaria = test: Pre-emergence herbicidal action (Example B1); details: 250 g/ha, after 4 weeks, rating scale 10=total damage, 0=no action
Protocol: as §1

Echinochloa [3] = test: Pre-emergence herbicidal action (Example B1); details: 250 g/ha, after 4 weeks, rating scale 10=total damage, 0=no action
Protocol: as §1

Panicum [4] = test: Pre-emergence herbicidal action (Example B1); details: 250 g/ha, after 4 weeks, rating scale 10=total damage, 0=no action
Protocol: as §1

Scirpus = test: Pre-emergence herbicidal action (Example B1); details: 250 g/ha, after 4 weeks, rating scale 10=total damage, 0=no action
Protocol: as §1

Amaranthus [5] = test: Post-emergence herbicidal action (Example B2); details: 250 g/ha, after about 18 days, rating scale 10=total damage, 0=no action
Excerpt: (§2) Monocotyledonous and dicotyledonous test plants are cultivated in a greenhouse in standard soil in plastic pots and, at the 4- to 6-leaf stage, are sprayed with an aqueous suspension of the test compounds of formula I prepared from a 25% wettable powder (Example F3, b) according to WO 97/34485) or with an emulsion of the test compounds of formula I prepared from a 25% emulsifiable concentrate (Example F1, c) according to WO 97/34485), corresponding to concentrations of 125 and 250 g of active ingredient per hectare (500 litres of water per ha). The test plants are then grown on in the greenhouse under optimum conditions. After a test duration of about 18 days, the test is evaluated in accordance with a scale of eleven ratings (10=total damage, 0=no action). Ratings of from 10 to 7 (especially from 10 to 8) indicate very good to good herbicidal action.

Chenopodium [6] = test: Post-emergence herbicidal action (Example B2); details: 250 g/ha, after about 18 days, rating scale 10=total damage, 0=no action
Excerpt: as §2

Echinochloa [7] = test: Post-emergence herbicidal action (Example B2); details: 250 g/ha, after about 18 days, rating scale 10=total damage, 0=no action
Excerpt: as §2

Euphorbia = test: Post-emergence herbicidal action (Example B2); details: 250 g/ha, after about 18 days, rating scale 10=total damage, 0=no action
Excerpt: as §2

Panicum [8] = test: Post-emergence herbicidal action (Example B2); details: 250 g/ha, after about 18 days, rating scale 10=total damage, 0=no action
Excerpt: as §2

Stellaria = test: Post-emergence herbicidal action (Example B2); details: 250 g/ha, after about 18 days, rating scale 10=total damage, 0=no action
Excerpt: as §2

Xanthium = test: Post-emergence herbicidal action (Example B2); details: 250 g/ha, after about 18 days, rating scale 10=total damage, 0=no action
Excerpt: as §2

| SMILES | Pre-emergence action: Abutilon (Abutilon) | Pre-emergence action: Amaranthus (Amaranthus [1]) | Pre-emergence action: Chenopodium (Chenopodium [2]) | Pre-emergence action: Digitaria (Digitaria) | Pre-emergence action: Echinochloa (Echinochloa [3]) | Pre-emergence action: Panicum (Panicum [4]) | Pre-emergence action: Scirpus (Scirpus) | Post-emergence action: Amaranthus (Amaranthus [5]) | Post-emergence action: Chenopodium (Chenopodium [6]) | Post-emergence action: Echinochloa (Echinochloa [7]) | Post-emergence action: Euphorbia (Euphorbia) | Post-emergence action: Panicum (Panicum [8]) | Post-emergence action: Stellaria (Stellaria) | Post-emergence action: Xanthium (Xanthium) |
| --- | --- | --- | --- | --- | --- | --- | --- | --- | --- | --- | --- | --- | --- | --- |
| CC1(C)C(=O)C(C(=O)c2ccc(C(F)(F)F)c(N3CCSCC3)n2)=C(O)C(C)(C)C1=O [Compound 2.078] | 10 | 8 | 10 | 10 | 10 | 10 | 0 | 7 | 10 | 8 | 7 | 5 | 10 | 7 |
| CC1(C)C(=O)C(C(=O)c2ccc(C(F)(F)F)c(C3(C)OCCO3)n2)=C(O)C(C)(C)C1=O [Compound 2.191] | 10 | 7 | 9 | 7 | 10 | 10 | 3 | 3 | 7 | 8 | 8 | 9 | 10 | 8 |
| CC1CN(c2nc(C(=O)C3=C(O)CCCC3=O)ccc2C(F)(F)F)CC(C)O1 (stereo not shown) [Compound 1.075] | 9 | 10 | 9 | 10 | 10 | 10 | 7 | 10 | 10 | 8 | 8 | 10 | 8 | 7 |
| CC1(C)C(=O)C(C(=O)c2ccc(C(F)(F)F)c(OC3CCOC3)n2)=C(O)C(C)(C)C1=O (stereo not shown) [Compound 2.021] | 9 | 7 | 9 | 3 | 0 | 9 | 7 | 9 | 8 | 9 | 9 | 9 | 7 | 8 |
| CC1CC(O)=C(C(=O)c2ccc(C(F)(F)F)c(N3CCOCC3)n2)C(=O)C1(C)C (stereo not shown) [Compound 3.073] | 5 | 0 | 7 | 9 | 7 | 10 | 7 | 4 | 9 | 8 | 7 | 7 | 7 | 7 |
| CC1(C)C(=O)C(C(=O)c2ccc(C(F)(F)F)c(N3CCOCC3)n2)=C(O)C(C)(C)C1=O [Compound 2.073] | 9 | 9 | 9 | 7 | 9 | 10 | 4 | 9 | 8 | 9 | 9 | 9 | 7 | 9 |
| CC1CCC(O)=C(C(=O)c2ccc(C(F)(F)F)c(N3CCOCC3)n2)C1=O (stereo not shown) [Compound 3.071] | 9 | 8 | 6 | 10 | 10 | 10 | 8 | 8 | 10 | 8 | 7 | 9 | 8 | 8 |
| CC1CC(=O)C(C(=O)c2ccc(C(F)(F)F)c(N3CCOCC3)n2)=C(O)C1 (stereo not shown) [Compound 3.069] | 10 | 10 | 6 | 10 | 10 | 10 | 5 | 8 | 10 | 7 | 5 | 8 | 7 | 8 |
| COC(COc1nc(C(=O)C2=C(O)CCCC2=O)ccc1C(F)(F)F)OC [Compound 1.012] | 10 | 5 | 0 | 9 | 5 | 10 | 7 | 9 | 8 | 8 | 9 | 7 | 7 | 8 |
| Cc1nc(C(=O)C2=C(O)C(C)(C)C(=O)C(C)(C)C2=O)ccc1C#N [Compound 2.209] | 10 | 9 | 9 | 8 | 10 | 10 | 2 | 8 | 6 | 8 | 8 | 9 | 10 | 9 |
| CC1(C)CCC(O)=C(C(=O)c2ccc(C(F)(F)F)c(N3CCOCC3)n2)C1=O [Compound 3.072] | 9 | 3 | 8 | 10 | 10 | 9 | 7 | 7 | 9 | 7 | 7 | 8 | 8 | 8 |
